Measurements from patent publication US11053204B2, “Pyrimidinyloxy benzene derivatives as herbicides” (FMC Corporation, priority 2015, dated 2021).

Columns and labels:
Type in all cases: in vivo
[1] = system: Italian ryegrass (Lolium multiflorum); assay: Test A preemergence, visual injury rating; conditions: 0 to 100 scale (0 no effect, 100 complete control)
Text: (§1) Seeds of plant species selected from barnyardgrass (Echinochloa crus-galli), kochia (Kochia scoparia), ragweed (common ragweed, Ambrosia elatior), Italian ryegrass (Lolium multiflorum), large (Lg) crabgrass (Digitaria sanguinalis), giant foxtail (Setaria faberii), morningglory (Ipomoea spp.), pigweed (Amaranthus retroflexus), velvetleaf (Abutilon theophrasti), wheat (Triticum aestivum), and corn (Zea mays) were planted into a blend of loam soil and sand and treated preemergence with a directed soil spray using test chemicals formulated in a non-phytotoxic solvent mixture which included a surfactant.
(§2) At the same time, plants selected from these crop and weed species and also blackgrass (Alopecurus myosuroides), and galium (catchweed bedstraw, Galium aparine) were planted in pots containing the same blend of loam soil and sand and treated with postemergence applications of test chemicals formulated in the same manner. Plants ranged in height from 2 to 10 cm and were in the one- to two-leaf stage for the postemergence treatment. Treated plants and untreated controls were maintained in a greenhouse for approximately 10 days, after which time all treated plants were compared to untreated controls and visually evaluated for injury. Plant response ratings, summarized in Table A, are based on a 0 to 100 scale where 0 is no effect and 100 is complete control. A dash (-) response means no test result.

[2] = system: barnyardgrass (Echinochloa crus-galli); assay: Test A preemergence, visual injury rating; conditions: 0 to 100 scale (0 no effect, 100 complete control)
Text: as §1, §2

[3] = system: giant foxtail (Setaria faberii); assay: Test A preemergence, visual injury rating; conditions: 0 to 100 scale (0 no effect, 100 complete control)
Text: as §1, §2

kochia (Kochia scoparia) [4] = assay: Test A preemergence, visual injury rating; conditions: 0 to 100 scale (0 no effect, 100 complete control)
Text: as §1, §2

[5] = system: pigweed (Amaranthus retroflexus); assay: Test A preemergence, visual injury rating; conditions: 0 to 100 scale (0 no effect, 100 complete control)
Text: as §1, §2

[6] = system: ragweed (common ragweed, Ambrosia elatior); assay: Test A preemergence, visual injury rating; conditions: 0 to 100 scale (0 no effect, 100 complete control)
Text: as §1, §2

[7] = system: Italian ryegrass (Lolium multiflorum); assay: Test A postemergence, visual injury rating; conditions: 0 is no effect, 100 is complete control
Text: as §1, §2

[8] = system: barnyardgrass (Echinochloa crus-galli); assay: Test A postemergence, visual injury rating; conditions: 0 is no effect, 100 is complete control
Text: as §1, §2

[9] = system: blackgrass (Alopecurus myosuroides); assay: Test A postemergence, visual injury rating; conditions: 0 is no effect, 100 is complete control
Text: as §1, §2

corn (Zea mays) = assay: Test A postemergence, visual injury rating; conditions: 0 is no effect, 100 is complete control
Text: as §1, §2

[10] = system: galium (catchweed bedstraw, Galium aparine); assay: Test A postemergence, visual injury rating; conditions: 0 is no effect, 100 is complete control
Text: as §1, §2

[11] = system: giant foxtail (Setaria faberii); assay: Test A postemergence, visual injury rating; conditions: 0 is no effect, 100 is complete control
Text: as §1, §2

kochia (Kochia scoparia) [12] = assay: Test A postemergence, visual injury rating; conditions: 0 is no effect, 100 is complete control
Text: as §1, §2

[13] = system: pigweed (Amaranthus retroflexus); assay: Test A postemergence, visual injury rating; conditions: 0 is no effect, 100 is complete control
Text: as §1, §2

[14] = system: ragweed (common ragweed, Ambrosia elatior); assay: Test A postemergence, visual injury rating; conditions: 0 is no effect, 100 is complete control
Text: as §1, §2

[15] = system: wheat (Triticum aestivum); assay: Test A postemergence, visual injury rating; conditions: 0 is no effect, 100 is complete control
Text: as §1, §2

SMILES | Ryegrass, Italian plant response rating ([1]; 500 g ai/ha) | Barnyardgrass plant response rating ([2]; 500 g ai/ha) | Foxtail, Giant plant response rating ([3]; 500 g ai/ha) | Kochia plant response rating (kochia (Kochia scoparia) [4]; 500 g ai/ha) | Pigweed plant response rating ([5]; 500 g ai/ha) | Ragweed plant response rating ([6]; 500 g ai/ha) | Ryegrass, Italian plant response rating (0 to 100 scale) ([7]; 500 g ai/ha) | Barnyardgrass plant response rating (0 to 100 scale) ([8]; 500 g ai/ha) | Blackgrass plant response rating (0 to 100 scale) ([9]; 500 g ai/ha) | Corn plant response rating (0 to 100 scale) (corn (Zea mays); 500 g ai/ha) | Galium plant response rating (0 to 100 scale) ([10]; 500 g ai/ha) | Foxtail, Giant plant response rating (0 to 100 scale) ([11]; 500 g ai/ha) | Kochia plant response rating (0 to 100 scale) (kochia (Kochia scoparia) [12]; 500 g ai/ha) | Pigweed plant response rating (0 to 100 scale) ([13]; 500 g ai/ha) | Ragweed plant response rating (0 to 100 scale) ([14]; 500 g ai/ha) | Wheat plant response rating (0 to 100 scale) ([15]; 500 g ai/ha) | Ryegrass, Italian plant response rating ([1]; 125 g ai/ha) | Barnyardgrass plant response rating ([2]; 125 g ai/ha) | Foxtail, Giant plant response rating ([3]; 125 g ai/ha) | Kochia plant response rating (kochia (Kochia scoparia) [4]; 125 g ai/ha) | also measured
CC(C)(C)OC(=O)c1c(Br)cccc1Oc1ncc(Cl)cn1 [Compound 14] | 20 | 60 | 100 | 70 | 100 | 10 | 70 | 40 | 70 | 10 | 100 | 60 | 70 | 100 | 0 | 40 |  |  |  |  | 
O=C(OCCC(F)(F)F)c1ccccc1Oc1ncc(Cl)cn1 [Compound 17] | 0 | 0 | 0 | 0 | 10 | 0 | 0 | 0 | 0 | 20 | 0 | 0 | 0 | 40 | 0 | 0 | 0 | 0 | 0 | 0 | Pigweed plant response rating ([5]; 125 g ai/ha): 0; Ragweed plant response rating ([6]; 125 g ai/ha): 0; Ryegrass, Italian plant response rating (0 to 100 scale) ([7]; 125 g ai/ha): 0; Barnyardgrass plant response rating (0 to 100 scale) ([8]; 125 g ai/ha): 0; Blackgrass plant response rating (0 to 100 scale) ([9]; 125 g ai/ha): 0; Corn plant response rating (0 to 100 scale) (corn (Zea mays); 125 g ai/ha): 0; Galium plant response rating (0 to 100 scale) ([10]; 125 g ai/ha): 0; Foxtail, Giant plant response rating (0 to 100 scale) ([11]; 125 g ai/ha): 0; Kochia plant response rating (0 to 100 scale) (kochia (Kochia scoparia) [12]; 125 g ai/ha): 0; Pigweed plant response rating (0 to 100 scale) ([13]; 125 g ai/ha): 20; Ragweed plant response rating (0 to 100 scale) ([14]; 125 g ai/ha): 0; Wheat plant response rating (0 to 100 scale) ([15]; 125 g ai/ha): 0
N#Cc1cnc(Oc2cccc(Br)c2C(=O)OCC(F)(F)F)nc1 [Compound 31] | 0 | 0 | 0 | 0 | 0 | 0 | 0 | 0 | 0 | 0 | 0 | 0 | 0 | 0 | 0 | 0 | 0 | 0 | 0 | 0 | Pigweed plant response rating ([5]; 125 g ai/ha): 0; Ragweed plant response rating ([6]; 125 g ai/ha): 0; Ryegrass, Italian plant response rating (0 to 100 scale) ([7]; 125 g ai/ha): 0; Barnyardgrass plant response rating (0 to 100 scale) ([8]; 125 g ai/ha): 0; Blackgrass plant response rating (0 to 100 scale) ([9]; 125 g ai/ha): 0; Corn plant response rating (0 to 100 scale) (corn (Zea mays); 125 g ai/ha): 0; Galium plant response rating (0 to 100 scale) ([10]; 125 g ai/ha): 0; Foxtail, Giant plant response rating (0 to 100 scale) ([11]; 125 g ai/ha): 0; Kochia plant response rating (0 to 100 scale) (kochia (Kochia scoparia) [12]; 125 g ai/ha): 0; Pigweed plant response rating (0 to 100 scale) ([13]; 125 g ai/ha): 0; Ragweed plant response rating (0 to 100 scale) ([14]; 125 g ai/ha): 0; Wheat plant response rating (0 to 100 scale) ([15]; 125 g ai/ha): 0
N#Cc1cccc(Oc2ncc(Cl)cn2)c1C(=O)OCC(F)(F)F [Compound 32] | 0 | 0 | 0 | 0 | 30 | 0 | 0 | 0 | 0 | 0 | 0 | 0 | 0 | 30 | 0 | 0 | 0 | 0 | 0 | 0 | Pigweed plant response rating ([5]; 125 g ai/ha): 30; Ragweed plant response rating ([6]; 125 g ai/ha): 0; Ryegrass, Italian plant response rating (0 to 100 scale) ([7]; 125 g ai/ha): 0; Barnyardgrass plant response rating (0 to 100 scale) ([8]; 125 g ai/ha): 0; Blackgrass plant response rating (0 to 100 scale) ([9]; 125 g ai/ha): 0; Corn plant response rating (0 to 100 scale) (corn (Zea mays); 125 g ai/ha): 0; Galium plant response rating (0 to 100 scale) ([10]; 125 g ai/ha): 0; Foxtail, Giant plant response rating (0 to 100 scale) ([11]; 125 g ai/ha): 0; Kochia plant response rating (0 to 100 scale) (kochia (Kochia scoparia) [12]; 125 g ai/ha): 0; Pigweed plant response rating (0 to 100 scale) ([13]; 125 g ai/ha): 20; Ragweed plant response rating (0 to 100 scale) ([14]; 125 g ai/ha): 0; Wheat plant response rating (0 to 100 scale) ([15]; 125 g ai/ha): 0
